Where two headings read alike, the source gives them in different places.
Columns and labels:
[1] = target: EGFR del19/T790M/C797S (Homo sapiens, UniProt P00533, C797S/DEL746-750/T790M); experiment: Biochemical EGFR kinase assay (Lance Ultra TR-FRET), triple mutant del19/T790M/C797S
Procedure, shortened: (§1)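 Step 1: compound in kinase buffer, 0.003–10 μM. Step 2: kinase reaction 1 h at room temperature. Step 4: TR-FRET read at 615/665 nm; IC50 calculated.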

[2] = target: EGFR L858R/C797S (Homo sapiens, UniProt P00533, C797S/L858R); experiment: Biochemical EGFR kinase assay (Lance Ultra TR-FRET), double mutant L858R/C797S
Procedure, shortened: as §1

[3] = target: EGFR L858R/T790M/C797S (Homo sapiens, UniProt P00533, C797S/L858R/T790M); experiment: Biochemical EGFR kinase assay (Lance Ultra TR-FRET), triple mutant L858R/T790M/C797S
Sequence of EGFR L858R/T790M/C797S (P00533 25-1210 T790M/C797S/L858R): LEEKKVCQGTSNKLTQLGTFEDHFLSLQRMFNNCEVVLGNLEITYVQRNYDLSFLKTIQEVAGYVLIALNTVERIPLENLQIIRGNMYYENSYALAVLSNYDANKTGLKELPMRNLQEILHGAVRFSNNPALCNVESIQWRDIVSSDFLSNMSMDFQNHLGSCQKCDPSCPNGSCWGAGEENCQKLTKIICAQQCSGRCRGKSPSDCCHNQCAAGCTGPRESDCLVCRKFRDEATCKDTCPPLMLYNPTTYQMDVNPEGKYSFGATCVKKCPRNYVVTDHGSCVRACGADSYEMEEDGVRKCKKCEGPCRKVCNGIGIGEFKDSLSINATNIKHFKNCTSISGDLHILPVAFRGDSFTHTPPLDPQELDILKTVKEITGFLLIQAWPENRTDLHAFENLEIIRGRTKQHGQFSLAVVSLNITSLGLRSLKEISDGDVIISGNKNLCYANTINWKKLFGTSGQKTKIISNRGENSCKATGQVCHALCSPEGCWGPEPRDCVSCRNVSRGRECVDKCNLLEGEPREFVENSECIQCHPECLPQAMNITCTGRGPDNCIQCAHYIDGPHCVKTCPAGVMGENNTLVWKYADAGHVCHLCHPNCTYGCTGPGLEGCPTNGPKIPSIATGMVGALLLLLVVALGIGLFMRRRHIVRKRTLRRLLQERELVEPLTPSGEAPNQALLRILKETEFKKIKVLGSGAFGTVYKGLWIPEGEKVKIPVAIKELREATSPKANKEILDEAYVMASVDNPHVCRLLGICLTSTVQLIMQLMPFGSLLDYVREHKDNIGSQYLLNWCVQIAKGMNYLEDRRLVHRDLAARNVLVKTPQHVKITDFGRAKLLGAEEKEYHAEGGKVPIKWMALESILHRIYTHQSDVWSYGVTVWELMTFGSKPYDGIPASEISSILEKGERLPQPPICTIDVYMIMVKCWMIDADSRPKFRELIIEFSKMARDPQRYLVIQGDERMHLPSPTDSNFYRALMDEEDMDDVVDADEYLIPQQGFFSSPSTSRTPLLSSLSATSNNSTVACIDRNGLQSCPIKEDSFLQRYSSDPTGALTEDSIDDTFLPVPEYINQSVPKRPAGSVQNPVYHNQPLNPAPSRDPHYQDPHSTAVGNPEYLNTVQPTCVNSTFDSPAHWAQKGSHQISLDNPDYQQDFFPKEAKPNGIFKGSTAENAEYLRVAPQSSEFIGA
Procedure, shortened: as §1

[4] = target: EGFR wildtype (WT) (Homo sapiens, UniProt P00533); experiment: Biochemical EGFR kinase assay (Lance Ultra TR-FRET), wildtype
Sequence of EGFR wildtype (WT) (P00533 25-1210): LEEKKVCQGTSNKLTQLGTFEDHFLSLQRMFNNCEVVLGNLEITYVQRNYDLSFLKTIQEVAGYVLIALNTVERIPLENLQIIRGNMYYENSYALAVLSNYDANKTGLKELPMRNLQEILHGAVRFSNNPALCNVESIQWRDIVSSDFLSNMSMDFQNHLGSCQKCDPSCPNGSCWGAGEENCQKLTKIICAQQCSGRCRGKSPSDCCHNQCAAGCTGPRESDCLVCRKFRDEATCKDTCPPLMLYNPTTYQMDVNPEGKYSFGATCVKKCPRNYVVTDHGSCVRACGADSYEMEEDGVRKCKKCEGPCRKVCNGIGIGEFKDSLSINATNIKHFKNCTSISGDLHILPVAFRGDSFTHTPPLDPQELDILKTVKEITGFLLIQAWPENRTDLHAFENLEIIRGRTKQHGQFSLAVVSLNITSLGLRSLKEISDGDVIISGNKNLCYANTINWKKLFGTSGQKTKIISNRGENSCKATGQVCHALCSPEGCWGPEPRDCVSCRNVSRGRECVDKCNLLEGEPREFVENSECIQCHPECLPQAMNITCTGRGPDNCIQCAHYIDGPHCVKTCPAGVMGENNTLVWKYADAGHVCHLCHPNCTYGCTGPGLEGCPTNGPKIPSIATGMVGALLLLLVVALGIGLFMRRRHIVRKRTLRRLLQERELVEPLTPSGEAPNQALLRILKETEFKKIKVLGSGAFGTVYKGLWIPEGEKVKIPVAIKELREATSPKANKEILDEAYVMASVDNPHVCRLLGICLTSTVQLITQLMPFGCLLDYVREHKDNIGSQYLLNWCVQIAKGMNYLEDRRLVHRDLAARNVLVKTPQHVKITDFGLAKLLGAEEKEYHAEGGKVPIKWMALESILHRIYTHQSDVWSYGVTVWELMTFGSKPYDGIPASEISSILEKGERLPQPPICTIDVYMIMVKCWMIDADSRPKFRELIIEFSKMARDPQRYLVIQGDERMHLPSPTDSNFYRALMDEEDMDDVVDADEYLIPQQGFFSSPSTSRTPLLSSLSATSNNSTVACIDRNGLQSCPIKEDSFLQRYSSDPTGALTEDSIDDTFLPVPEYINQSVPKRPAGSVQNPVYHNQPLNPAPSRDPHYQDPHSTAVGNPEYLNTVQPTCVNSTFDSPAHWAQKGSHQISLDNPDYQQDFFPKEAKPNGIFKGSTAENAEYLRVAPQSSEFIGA
Procedure, shortened: as §1

[5] = target: EGFR del19/C797S (Homo sapiens, UniProt P00533, C797S/DEL746-750); experiment: Biochemical EGFR kinase assay (Lance Ultra TR-FRET), double mutant del19/C797S
Sequence of EGFR del19/C797S (P00533 with tags, fused parts or gaps DEL746-750/C797S): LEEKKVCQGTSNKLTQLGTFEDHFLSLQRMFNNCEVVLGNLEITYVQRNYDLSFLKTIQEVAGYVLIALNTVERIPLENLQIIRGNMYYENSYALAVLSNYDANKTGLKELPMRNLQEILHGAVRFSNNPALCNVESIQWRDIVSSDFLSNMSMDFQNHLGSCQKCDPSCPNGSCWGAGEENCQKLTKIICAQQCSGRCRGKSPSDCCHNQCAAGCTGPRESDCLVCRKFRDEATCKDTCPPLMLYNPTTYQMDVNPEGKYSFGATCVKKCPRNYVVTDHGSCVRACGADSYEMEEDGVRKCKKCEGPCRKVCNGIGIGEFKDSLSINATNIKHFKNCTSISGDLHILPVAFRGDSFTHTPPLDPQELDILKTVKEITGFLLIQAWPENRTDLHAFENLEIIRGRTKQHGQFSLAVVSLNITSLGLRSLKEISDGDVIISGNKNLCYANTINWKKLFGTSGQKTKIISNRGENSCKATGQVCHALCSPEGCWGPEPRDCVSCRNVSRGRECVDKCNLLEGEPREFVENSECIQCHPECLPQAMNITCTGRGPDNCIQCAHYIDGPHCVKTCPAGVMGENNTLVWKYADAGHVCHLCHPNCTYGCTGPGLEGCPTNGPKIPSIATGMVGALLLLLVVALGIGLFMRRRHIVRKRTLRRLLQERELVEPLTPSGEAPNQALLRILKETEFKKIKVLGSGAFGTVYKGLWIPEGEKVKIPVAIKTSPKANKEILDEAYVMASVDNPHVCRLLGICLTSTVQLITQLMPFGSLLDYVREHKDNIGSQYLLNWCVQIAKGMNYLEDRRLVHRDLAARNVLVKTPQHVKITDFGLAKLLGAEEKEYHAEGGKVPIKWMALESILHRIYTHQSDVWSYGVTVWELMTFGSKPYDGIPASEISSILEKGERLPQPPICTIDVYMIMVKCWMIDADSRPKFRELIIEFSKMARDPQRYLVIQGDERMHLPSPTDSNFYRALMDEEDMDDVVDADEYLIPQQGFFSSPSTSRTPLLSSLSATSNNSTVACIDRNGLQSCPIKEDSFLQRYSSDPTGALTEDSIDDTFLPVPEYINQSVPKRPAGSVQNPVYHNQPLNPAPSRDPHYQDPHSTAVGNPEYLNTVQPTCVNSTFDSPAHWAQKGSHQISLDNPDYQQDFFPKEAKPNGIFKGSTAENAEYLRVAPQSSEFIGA
Procedure, shortened: as §1

[6] = IC50 del19/T790M/C797S (nM) 100 μM ATP, 100 μM ATP
[7] = IC50 L858R/C797S (nM) 100 μM ATP, 100 μM ATP
[8] = IC50 L858R/T790M/C797S (nM) 100 μM ATP, 100 μM ATP
[9] = IC50 WT (nM) 100 μM ATP, 100 μM ATP
[10] = IC50 del19/C797S (nM) 100 μM ATP, 100 μM ATP
[11] = Km ATP, read-out: IC50 del19/T790M/C797S (nM) Km ATP
[12] = Km ATP, read-out: IC50 L858R/C797S (nM) Km ATP
[13] = Km ATP, read-out: IC50 L858R/T790M/C797S (nM) Km ATP
[14] = Km ATP, read-out: IC50 WT (nM) Km ATP
[15] = Km ATP, read-out: IC50 del19/C797S (nM) Km ATP

Sequence of EGFR del19/T790M/C797S (P00533 with tags, fused parts or gaps DEL746-750/T790M/C797S): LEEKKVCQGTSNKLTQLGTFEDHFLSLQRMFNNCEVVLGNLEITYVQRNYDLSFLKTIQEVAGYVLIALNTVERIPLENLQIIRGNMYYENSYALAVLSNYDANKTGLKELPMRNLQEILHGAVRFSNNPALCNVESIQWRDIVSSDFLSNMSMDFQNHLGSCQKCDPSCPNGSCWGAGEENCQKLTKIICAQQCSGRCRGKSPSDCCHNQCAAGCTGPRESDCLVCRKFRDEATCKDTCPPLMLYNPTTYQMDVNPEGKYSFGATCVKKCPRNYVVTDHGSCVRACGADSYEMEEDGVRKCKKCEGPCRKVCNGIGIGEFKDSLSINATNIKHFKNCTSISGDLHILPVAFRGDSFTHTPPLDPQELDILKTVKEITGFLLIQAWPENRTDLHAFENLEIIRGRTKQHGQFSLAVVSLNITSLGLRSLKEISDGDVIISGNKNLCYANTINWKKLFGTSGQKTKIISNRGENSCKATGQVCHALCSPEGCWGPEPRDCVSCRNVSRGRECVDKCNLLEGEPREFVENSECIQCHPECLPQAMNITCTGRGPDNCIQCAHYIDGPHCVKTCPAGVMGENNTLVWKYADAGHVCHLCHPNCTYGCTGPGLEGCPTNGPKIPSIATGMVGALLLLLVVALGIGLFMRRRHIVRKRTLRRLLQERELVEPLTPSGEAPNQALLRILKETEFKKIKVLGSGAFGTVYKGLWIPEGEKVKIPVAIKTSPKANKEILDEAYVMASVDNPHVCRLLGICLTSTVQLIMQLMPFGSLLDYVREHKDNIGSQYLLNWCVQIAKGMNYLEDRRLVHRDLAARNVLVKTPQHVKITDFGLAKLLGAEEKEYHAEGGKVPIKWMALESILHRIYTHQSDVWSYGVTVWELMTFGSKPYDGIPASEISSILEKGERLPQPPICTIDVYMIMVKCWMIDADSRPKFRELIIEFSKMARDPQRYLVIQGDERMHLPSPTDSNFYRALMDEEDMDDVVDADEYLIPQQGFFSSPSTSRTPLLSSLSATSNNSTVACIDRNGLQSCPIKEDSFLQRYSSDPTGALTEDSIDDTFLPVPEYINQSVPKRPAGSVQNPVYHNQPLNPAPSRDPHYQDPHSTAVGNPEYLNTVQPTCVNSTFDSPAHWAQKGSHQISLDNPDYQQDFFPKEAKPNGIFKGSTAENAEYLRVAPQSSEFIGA

Structure (SMILES)	IC50 [1, 6] [nM]	IC50 [2, 7] [nM]	IC50 [3, 8] [nM]	IC50 [4, 9] [nM]	IC50 [5, 10] [nM]	IC50 [1, 11] [nM]	IC50 [2, 12] [nM]	IC50 [3, 13] [nM]	IC50 [4, 14] [nM]	IC50 [5, 15] [nM]	IC50 ([1]; read-out: IC50 del19/T790M/C797S (nM) 100 μM ATP, 100 μM ATP) [nM]	IC50 ([2]; read-out: IC50 L858R/C797S (nM) 100 μM ATP, 100 μM ATP) [nM]	IC50 ([3]; read-out: IC50 L858R/T790M/C797S (nM) 100 μM ATP, 100 μM ATP) [nM]	IC50 ([4]; read-out: IC50 WT (nM) 100 μM ATP, 100 μM ATP) [nM]	IC50 ([5]; read-out: IC50 del19/C797S (nM) 100 μM ATP, 100 μM ATP) [nM]
CN(C)CCNC1CCC(Nc2cc(Nc3ccnc(-c4cnn(S(=O)(=O)C5CC5)c4)n3)ncc2-c2ccn(C(F)F)n2)CC1 (stereo not shown) [Example 99, N^2-(2-(1-(cyclopropylsulfonyl)-1H-pyrazol-4-yl)pyrimidin-4-yl)-5-(1-(difluoromethyl)-1H-pyrazol-3-yl)-N4-(4-((2-(dimethylamino)ethyl)amino)cyclohexyl)pyridine-2,4-diamine]	0.5	4.8	0.8	612	1.7	–	–	–	–	–	–	–	–	–	–
CN(C)C[C@H]1CC[C@H](CNc2cc(Nc3ccnc(-c4cnn(S(=O)(=O)C5CC5)c4)n3)ncc2-c2ccn(C(F)F)n2)CC1 [Example 100, N^2-(2-(1-(Cyclopropylsulfonyl)-1H-pyrazol-4-yl)pyrimidin-4-yl)-5-(1-(difluoromethyl)-1H-pyrazol-3-yl)-N^4-(((1r,4r)-4-((dimethylamino)methyl)cyclohexyl)methyl)pyridine-2,4-diamine]	0.6	1.4	0.5	582	0.4	0.5	0.3	0.3	1	0.5	–	–	–	–	–
CN(C)C[C@H]1CC[C@H](CNc2cc(Nc3ccnc(-c4cnn(S(=O)(=O)C5CC5)c4)n3)ncc2-c2csc(C(F)(F)F)n2)CC1 [Example 101, N^2-(2-(1-(Cyclopropylsulfonyl)-1H-pyrazol-4-yl)pyrimidin-4-yl)-N^4-(((1r,4r)-4-((dimethylamino)methyl)cyclohexyl)methyl)-5-(2-(trifluoromethyl)thiazol-4-yl)pyridine-2,4-diamine]	0.3	3.8	0.3	828	0.4	0.3	0.8	0.1	–	0.4	–	–	–	–	–
CCOC(=O)c1ccn(-c2cnc(Nc3ccnc(-c4cnn(S(=O)(=O)C5CC5)c4)n3)cc2N[C@H]2CC[C@@](C)(O)CC2)n1 [Example 102, Ethyl 1-(6-((2-(1-(cyclopropylsulfonyl)-1H-pyrazol-4-yl)pyrimidin-4-yl)amino)-4-(((1s,4s)-4-hydroxy-4-methylcyclohexyl)amino)pyridin-3-yl)-1H-pyrazole-3-carboxylate]	0.4	123	0.6	> 10000	10.6	0.5	4.4	0.3	183	6.3	–	–	–	–	–
O=S(=O)(C1CC1)n1cc(-c2nccc(Nc3cc(NC4CC5(CC(O)C5)C4)c(-c4ccn(C(F)F)n4)cn3)n2)cn1 (stereo not shown) [Example 103, 6-((2-((2-(1-(Cyclopropylsulfonyl)-1H-pyrazol-4-yl)pyrimidin-4-yl)amino)-5-(1-(difluoromethyl)-1H-pyrazol-3-yl)pyridin-4-yl)amino)spiro[3.3]heptan-2-ol]	–	–	–	–	–	0.8	24	0.4	58.2	31	–	–	–	–	–
COCC#Cc1nccc(Nc2cc(NC3CCC(C)(O)CC3)c(-c3ccn(C(F)F)n3)cn2)n1 (stereo not shown) [Example 104, (1s,4s)-4-((5-(1-(Difluoromethyl)-1H-pyrazol-3-yl)-2-((2-(3-methoxyprop-1-yn-1-yl)pyrimidin-4-yl)amino)pyridin-4-yl)amino)-1-methylcyclohexan-1-ol]	–	–	–	–	–	4.3	15.6	5.9	984	949	–	–	–	–	–
CC1CC(Nc2cc(Nc3ccnc(-c4cnn(S(=O)(=O)C5CC5)c4)n3)ncc2-c2ccn(C(F)F)n2)CCC1O (stereo not shown) [Example 105, 4-((2-((2-(1-(Cyclopropylsulfonyl)-1H-pyrazol-4-yl)pyrimidin-4-yl)amino)-5-(1-(difluoromethyl)-1H-pyrazol-3-yl)pyridin-4-yl)amino)-2-methylcyclohexan-1-ol]	6.2	1100	4.8	> 10000	73	7.7	50.7	2.5	73.2	48.2	–	–	–	–	–
CC1(C)CC(Nc2cc(Nc3ccnc(-c4cnn(S(=O)(=O)C5CC5)c4)n3)ncc2-c2ccn(C(F)F)n2)CCC1O (stereo not shown) [Example 106, 4-((2-((2-(1-(Cyclopropylsulfonyl)-1H-pyrazol-4-yl)pyrimidin-4-yl)amino)-5-(1-(difluoromethyl)-1H-pyrazol-3-yl)pyridin-4-yl)amino)-2,2-dimethylcyclohexan-1-ol]	3.9	453	2.6	9960	22.7	3.9	19	–	46.9	19.6	–	–	–	–	–

Continued, values first:

IC50 [1, 6] [nM]	IC50 [2, 7] [nM]	IC50 [3, 8] [nM]	IC50 [4, 9] [nM]	IC50 [5, 10] [nM]	IC50 [1, 11] [nM]	IC50 [2, 12] [nM]	IC50 [3, 13] [nM]	IC50 [4, 14] [nM]	IC50 [5, 15] [nM]	IC50 ([1]; read-out: IC50 del19/T790M/C797S (nM) 100 μM ATP, 100 μM ATP) [nM]	IC50 ([2]; read-out: IC50 L858R/C797S (nM) 100 μM ATP, 100 μM ATP) [nM]	IC50 ([3]; read-out: IC50 L858R/T790M/C797S (nM) 100 μM ATP, 100 μM ATP) [nM]	IC50 ([4]; read-out: IC50 WT (nM) 100 μM ATP, 100 μM ATP) [nM]	IC50 ([5]; read-out: IC50 del19/C797S (nM) 100 μM ATP, 100 μM ATP) [nM]	Structure (SMILES)
2.7	346	4.6	> 10000	113	–	–	–	–	–	–	–	–	–	–	C[C@]1(O)CCCN(c2cc(Nc3ccnc(-c4cnn(S(=O)(=O)C5CC5)c4)n3)ncc2-c2ccn(C(F)F)n2)C1 [Example 107, (S)-1-(2-((2-(1-(Cyclopropylsulfonyl)-1H-pyrazol-4-yl)pyrimidin-4-yl)amino)-5-(1-(difluoromethyl)-1H-pyrazol-3-yl)pyridin-4-yl)-3-methylpiperidin-3-ol]
–	–	–	–	–	1.2	2	0.5	57.2	23.7	–	–	–	–	–	CS(=O)(=O)n1ccc(-c2nccc(Nc3cc(N[C@H]4CC[C@@](C)(O)CC4)c(-c4ccn(C(F)F)n4)cn3)n2)c1 [Example 108, (1s,4s)-4-((5-(1-(Difluoromethyl)-1H-pyrazol-3-yl)-2-((2-(1-(methylsulfonyl)-1H-pyrrol-3-yl)pyrimidin-4-yl)amino)pyridin-4-yl)amino)-1-methylcyclohexan-1-ol]
–	–	–	–	–	9.5	14.5	2.2	538	178	–	–	–	–	–	CN(C)S(=O)(=O)n1ccc(-c2nccc(Nc3cc(N[C@H]4CC[C@@](C)(O)CC4)c(-c4ccn(C(F)F)n4)cn3)n2)c1 [Example 109, 3-(4-((5-(1-(Difluoromethyl)-1H-pyrazol-3-yl)-4-(((1s,4s)-4-hydroxy-4-methylcyclohexyl)amino)pyridin-2-yl)amino)pyrimidin-2-yl)-N,N-dimethyl-1H-pyrrole-1-sulfonamide]
–	–	–	–	–	2.5	23.7	1.9	34.5	24.7	–	–	–	–	–	O=S(=O)(C1CC1)n1cc(-c2nccc(Nc3cc(NC4CCC(O)(C5CC5)CC4)c(-c4ccn(C(F)F)n4)cn3)n2)cn1 (stereo not shown) [Example 110, 1-Cyclopropyl-4-((2-((2-(1-(cyclopropylsulfonyl)-1H-pyrazol-4-yl)pyrimidin-4-yl)amino)-5-(1-(difluoromethyl)-1H-pyrazol-3-yl)pyridin-4-yl)amino)cyclohexan-1-ol]
1.6	67.2	0.2	> 10000	253	1.4	19.7	0.1	53.7	86.8	–	–	–	–	–	CO[C@H]1CCN(c2nccc(Nc3cc(N[C@H]4CC[C@@](C)(O)CC4)c(-c4ccn(C(F)F)n4)cn3)n2)C[C@H]1F [Example 111, (1s,4s)-4-((5-(1-(Difluoromethyl)-1H-pyrazol-3-yl)-2-((2-((3R,4S)-3-fluoro-4-methoxypiperidin-1-yl)pyrimidin-4-yl)amino)pyridin-4-yl)amino)-1-methylcyclohexan-1-ol]
–	–	–	–	–	1.2	34.9	0.5	220	34.5	2.1	60.7	4.9	> 10000	75.4	CS(=O)(=O)n1cc(-c2nccc(Nc3cc(N[C@H]4CC[C@@](C)(O)CC4)c(-c4ccn(C(F)F)n4)cn3)n2)cn1 [Example 112, (1s,4s)-4-((5-(1-(Difluoromethyl)-1H-pyrazol-3-yl)-2-((2-(1-(methylsulfonyl)-1H-pyrazol-4-yl)pyrimidin-4-yl)amino)pyridin-4-yl)amino)-1-methylcyclohexan-1-ol]
17.5	483	186	> 10000	606	–	–	–	> 10000	–	–	–	–	–	–	C[C@]1(O)CC[C@@H](Nc2cc(Nc3ccnc(-c4ccc(F)nc4)n3)ncc2-c2ccn(C(F)F)n2)CC1 [Example 113, (1s,4s)-4-((5-(1-(Difluoromethyl)-1H-pyrazol-3-yl)-2-((2-(6-fluoropyridin-3-yl)pyrimidin-4-yl)amino)pyridin-4-yl)amino)-1-methylcyclohexan-1-ol]
